Test: Storage stability test (viscosity change of mixture with UVR-6110 stored at 80° C.)
Type: physicochemical
Conditions: measured at 25° C.; for Viscosity after storage for 1 week / Viscosity after storage for 2 weeks / Viscosity after storage for 4 weeks / Viscosity after storage for 6 weeks: stored at 80° C.
Procedure: As an acceleration test for storage stability, a mixture of the cationic polymerization initiator solution and a cationic polymerizable compound was evaluated by measuring its change in the viscosity when stored at a temperature of 80° C.
5 parts of a propylene carbonate solution of the cationic polymerization initiators used in each of Test Examples 5 and 9 was added to 100 parts UVR-6110 (the alicyclic epoxy resin, supra), and 200 g of this mixture was put in a 250 mL brown plastic bottle and stored in an 80° C. thermostat.
3 parts of a propylene carbonate solution of the cationic polymerization initiator used in each of Test Examples 12 and 15 were mixed with 100 parts UVR-6110, and 200 g of this mixture taken in a 250 ml brown plastic bottle and stored in an 80° C. thermostat.
The above-mentioned mixture was adjusted to 25° C. in a thermostatic tank that had been adjusted to 25° C., and the viscosity of the mixture was measured at the start of storage and after one, two, four, and six weeks.

[1] = 5 parts initiator solution per 100 parts UVR-6110
[2] = 3 parts initiator solution per 100 parts UVR-6110

Row | Compound | Viscosity after storage, At start [1] [mPa · s] | Viscosity after storage for 1 week [1] [mPa · s] | Viscosity after storage for 2 weeks [1] [mPa · s] | Viscosity after storage for 4 weeks [1] [mPa · s] | Viscosity after storage for 6 weeks [1] [mPa · s] | Viscosity after storage, At start [2] [mPa · s] | Viscosity after storage for 1 week [2] [mPa · s] | Viscosity after storage for 2 weeks [2] [mPa · s] | Viscosity after storage for 4 weeks [2] [mPa · s] | Viscosity after storage for 6 weeks [2] [mPa · s]
1 | F[P-](F)(F)(F)(F)F.c1ccc(Sc2ccc([S+](c3ccccc3)c3ccccc3)cc2)cc1 [Example 5, (4-phenylthiophenyl)diphenylsulfonium hexafluorophosphonate] | 480 | 480 | 480 | 500 | 500 | – | – | – | – | –
2 | (4-phenylthiophenyl)diphenylsulfonium hexafluoroantimonate [Example 8] | – | – | – | – | – | 470 | 470 | 470 | 510 | 650
